Data taken from the NIST ThermoML archive (doi:10.1016/j.fluid.2016.06.024).

Tests used:
[1] = molar heat capacity at constant pressure; conditions: Liquid, Flow calorimetry
[2] = molar heat capacity at constant pressure; wn = mass fraction of the nth substance listed; conditions: Liquid, Flow calorimetry, w2 = 0.995

CCO [ethanol]
molar heat capacity at constant pressure [J/K/mol], [1]
Conditions | 100 kPa | 5000 kPa | 10000 kPa | 15000 kPa | 20000 kPa
273.17 K | 103.42 | 103.1 | 102.18 | 101.77 | 100.8
293.16 K | 111.62 | 111.02 | 109.97 | 108.95 | 108.21
313.18 K | 120.47 | 119.09 | 117.7 | 116.78 | 115.68
333.19 K | 130.65 | 129.73 | 128.35 | 126.83 | 125.91

COC(F)(F)C(F)(F)C(F)(F)F [heptafluoropropyl methyl ether]
[1]
Conditions | molar heat capacity at constant pressure [J/K/mol]
255.05 K, 100 kPa | 233.26
255.06 K, 10000 kPa | 230.06
255.06 K, 15000 kPa | 229.26
255.08 K, 5000 kPa | 231.26
266.01 K, 100 kPa | 240.27
266.01 K, 5000 kPa | 238.67
266.02 K, 10000 kPa | 237.06
266.03 K, 15000 kPa | 236.46
275.04 K, 100 kPa | 245.47
275.04 K, 15000 kPa | 241.27
275.05 K, 5000 kPa | 244.27
275.11 K, 10000 kPa | 242.47
284.81 K, 100 kPa | 251.87
284.81 K, 5000 kPa | 250.07
284.86 K, 10000 kPa | 248.67
284.94 K, 15000 kPa | 247.47
294.05 K, 100 kPa | 257.67
294.07 K, 5000 kPa | 255.47
294.08 K, 10000 kPa | 254.47
294.1 K, 15000 kPa | 253.67

COC(F)(F)C(F)(C(F)(F)F)C(F)(F)F [methyl nonafluoroisobutyl ether] + COC(F)(F)C(F)(F)C(F)(F)C(F)(F)F
[2]
Conditions | molar heat capacity at constant pressure [J/K/mol]
253.15 K, 5000 kPa | 209.05
253.16 K, 10000 kPa | 207.55
253.16 K, 15000 kPa | 205.55
253.17 K, 100 kPa | 214.05
264.15 K, 15000 kPa | 227.11
264.16 K, 5000 kPa | 230.61
264.17 K, 100 kPa | 232.86
264.18 K, 10000 kPa | 228.61
274.59 K, 15000 kPa | 249.36
274.63 K, 100 kPa | 257.81
274.63 K, 5000 kPa | 252.81
274.63 K, 10000 kPa | 250.86
284.25 K, 10000 kPa | 273.79
284.26 K, 100 kPa | 278.04
284.27 K, 5000 kPa | 275.79
284.3 K, 15000 kPa | 272.29
294.09 K, 5000 kPa | 297.5
294.09 K, 10000 kPa | 294.82
294.1 K, 100 kPa | 300.52
294.13 K, 15000 kPa | 294
303.94 K, 10000 kPa | 317.35
303.95 K, 100 kPa | 321.61
303.96 K, 5000 kPa | 319.35
303.96 K, 15000 kPa | 315.85
314.92 K, 100 kPa | 347.39
314.92 K, 5000 kPa | 345.14
314.92 K, 10000 kPa | 342.34
314.92 K, 15000 kPa | 340.08
323.71 K, 100 kPa | 374.09
323.72 K, 5000 kPa | 369.47
323.73 K, 10000 kPa | 367.47
323.74 K, 15000 kPa | 364.84
